Measurements published in US20160009693A1, “HERBICIDAL COMPOUNDS” (SYNGENTA LIMITED, priority 2013, published 2016).

Tests used:
Type in all cases: in vivo
Conditions in all cases: applied at 1000 g/h, evaluated after 13 days
[1] = tested on: Ipomoea hederacea (IPOHE); assay: Herbicidal glasshouse test, pre-emergence, IPOHE
[2] = tested on: Setaria faberi (SETFA); assay: Herbicidal glasshouse test, pre-emergence, SETFA
[3] = tested on: Alopecurus myosuroides (ALOMY); assay: Herbicidal glasshouse test, pre-emergence, ALOMY
[4] = tested on: Alopecurus myosuroides (ALOMY); assay: Herbicidal glasshouse test, post-emergence, ALOMY
[5] = tested on: Echinochloa crus-galli (ECHCG); assay: Herbicidal glasshouse test, pre-emergence, ECHCG
Summary of the method: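 In this pre-emergence glasshouse test, ECHCG seeds sown in pots of standard soil were sprayed one day after sowing with the test material in acetone/water (50:50) containing 0.5% Tween 20. Plants were kept at 24/16° C., 14 hours light, 65% humidity, and watered twice daily. Percentage damage was rated after 13 days on a 1–5 scale.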

[6] = tested on: Echinochloa crus-galli (ECHCG); assay: Herbicidal glasshouse test, post-emergence, ECHCG
Summary of the method: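 In this post-emergence glasshouse test, barnyard grass (ECHCG) was cultivated for 8 days under controlled conditions (24/16° C. day/night, 14 hours light, 65% humidity). It was then sprayed with an aqueous solution of the technical compound in acetone / water (50:50) with 0.5% Tween 20. Plants were kept under the same conditions and watered twice daily. After 13 days, percentage damage was rated on a five point scale (5=80-100%; 1=0-19%).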

[7] = tested on: Amaranthus retoflexus (AMARE); assay: Herbicidal glasshouse test, pre-emergence, AMARE
Summary of the method: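 This pre-emergence glasshouse herbicide test used Amaranthus retoflexus sown in standard soil. After one day of cultivation, an aqueous spray made from the technical ingredient in 50:50 acetone/water with 0.5% Tween 20 was applied. Pots stayed at 24/16° C., 14 hours light, 65% humidity, with twice-daily watering. Damage was rated on a five point scale (1=0-19% up to 5=80-100%).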

[8] = tested on: Solanum nigrum (SOLNI); assay: Herbicidal glasshouse test, post-emergence, SOLNI
[9] = tested on: Amaranthus retoflexus (AMARE); assay: Herbicidal glasshouse test, post-emergence, AMARE
Summary of the method: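 This post-emergence glasshouse test used AMARE plants raised in standard soil for 8 days under controlled conditions (24/16° C. day/night, 14 hours light, 65% humidity). Foliage was sprayed with formulated compound in acetone/water (50:50) containing 0.5% Tween 20. Plants were then watered twice daily, and after 13 days percentage damage was rated on a five point scale.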

[10] = tested on: Ipomoea hederacea (IPOHE); assay: Herbicidal glasshouse test, post-emergence, IPOHE
[11] = tested on: Setaria faberi (SETFA); assay: Herbicidal glasshouse test, post-emergence, SETFA
Summary of the method: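 This post-emergence glasshouse herbicide test used potted Setaria faberi. Plants were cultivated for 8 days under controlled conditions (24/16° C. day/night, 14 hours light, 65% humidity) and then treated with an aqueous spray made from an acetone/water (50:50) solution containing 0.5% Tween 20. After 13 days of further growth with twice-daily watering, damage was rated on a five point scale (5=80-100%; 1=0-19%).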

[12] = tested on: Solanum nigrum (SOLNI); assay: Herbicidal glasshouse test, pre-emergence, SOLNI
Summary of the method: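 This pre-emergence glasshouse herbicide test used Solanum nigrum sown in standard soil. One day after sowing, pots were sprayed with the compound in acetone/water (50:50) with 0.5% Tween 20. They were then grown at 24/16° C., with 14 hours light and 65% humidity, and watered twice daily. Percentage damage was scored after 13 days on a five point scale, where 5=80-100% and 1=0-19%.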

Cn1ncnc1NC(=O)c1cn(C)c(=O)n(-c2ccccc2)c1=O [Compound 2.003]
PRE Application IPOHE, percentage damage (five point scale) [1]: 5 (5=80-100%)
PRE Application SETFA, percentage damage (five point scale) [2]: 3 (3=40-59%)
PRE Application ALOMY, percentage damage (five point scale) [3]: 1 (1=0-19%)
POST Application ALOMY, percentage damage (five point scale) [4]: 1 (1=0-19%)
PRE Application ECHCG, percentage damage (five point scale) [5]: 1 (1=0-19%)
POST Application ECHCG, percentage damage (five point scale) [6]: 1 (1=0-19%)
PRE Application AMARE, percentage damage (five point scale) [7]: 2 (2=20-39%)
POST Application SOLNI, percentage damage (five point scale) [8]: 2 (2=20-39%)
POST Application AMARE, percentage damage (five point scale) [9]: 1 (1=0-19%)
POST Application IPOHE, percentage damage (five point scale) [10]: 2 (2=20-39%)
POST Application SETFA, percentage damage (five point scale) [11]: 1 (1=0-19%)
PRE Application SOLNI, percentage damage (five point scale) [12]: 4 (4=60-79%)

C=CCn1c(=O)c(C(=O)Nc2nnnn2C)nn(C)c1=O [Compound 1.004]
PRE Application IPOHE, percentage damage (five point scale) [1]: 4 (4=60-79%)
PRE Application SETFA, percentage damage (five point scale) [2]: 2 (2=20-39%)
PRE Application ALOMY, percentage damage (five point scale) [3]: 3 (3=40-59%)
POST Application ALOMY, percentage damage (five point scale) [4]: 4 (4=60-79%)
PRE Application ECHCG, percentage damage (five point scale) [5]: 4 (4=60-79%)
POST Application ECHCG, percentage damage (five point scale) [6]: 4 (4=60-79%)
PRE Application AMARE, percentage damage (five point scale) [7]: 5 (5=80-100%)
POST Application SOLNI, percentage damage (five point scale) [8]: 5 (5=80-100%)
POST Application AMARE, percentage damage (five point scale) [9]: 5 (5=80-100%)
POST Application IPOHE, percentage damage (five point scale) [10]: 5 (5=80-100%)
POST Application SETFA, percentage damage (five point scale) [11]: 4 (4=60-79%)
PRE Application SOLNI, percentage damage (five point scale) [12]: 5 (5=80-100%)

Cn1nnnc1NC(=O)c1nn(C)c(=O)n(Cc2cc(F)ccc2F)c1=O [Compound 1.061]
PRE Application IPOHE, percentage damage (five point scale) [1]: 5 (5=80-100%)
PRE Application SETFA, percentage damage (five point scale) [2]: 5 (5=80-100%)
PRE Application ALOMY, percentage damage (five point scale) [3]: 5 (5=80-100%)
POST Application ALOMY, percentage damage (five point scale) [4]: 5 (5=80-100%)
PRE Application ECHCG, percentage damage (five point scale) [5]: 5 (5=80-100%)
POST Application ECHCG, percentage damage (five point scale) [6]: 5 (5=80-100%)
PRE Application AMARE, percentage damage (five point scale) [7]: 5 (5=80-100%)
POST Application SOLNI, percentage damage (five point scale) [8]: 5 (5=80-100%)
POST Application AMARE, percentage damage (five point scale) [9]: 5 (5=80-100%)
POST Application IPOHE, percentage damage (five point scale) [10]: 5 (5=80-100%)
POST Application SETFA, percentage damage (five point scale) [11]: 5 (5=80-100%)
PRE Application SOLNI, percentage damage (five point scale) [12]: 5 (5=80-100%)

Cn1nnnc1NC(=O)c1nn(C)c(=O)n(Cc2ccc(Cl)c(Cl)c2)c1=O [Compound 1.068]
PRE Application IPOHE, percentage damage (five point scale) [1]: 1 (1=0-19%)
PRE Application SETFA, percentage damage (five point scale) [2]: 1 (1=0-19%)
PRE Application ALOMY, percentage damage (five point scale) [3]: 3 (3=40-59%)
POST Application ALOMY, percentage damage (five point scale) [4]: 3 (3=40-59%)
PRE Application ECHCG, percentage damage (five point scale) [5]: 2 (2=20-39%)
POST Application ECHCG, percentage damage (five point scale) [6]: 4 (4=60-79%)
PRE Application AMARE, percentage damage (five point scale) [7]: 5 (5=80-100%)
POST Application SOLNI, percentage damage (five point scale) [8]: 5 (5=80-100%)
POST Application AMARE, percentage damage (five point scale) [9]: 5 (5=80-100%)
POST Application IPOHE, percentage damage (five point scale) [10]: 5 (5=80-100%)
POST Application SETFA, percentage damage (five point scale) [11]: 1 (1=0-19%)
PRE Application SOLNI, percentage damage (five point scale) [12]: 5 (5=80-100%)

Cn1ncnc1NC(=O)c1nn(C)c(=O)n(-c2ccccc2)c1=O [Compound 5.001]
PRE Application IPOHE, percentage damage (five point scale) [1]: 4 (4=60-79%)
PRE Application SETFA, percentage damage (five point scale) [2]: 1 (1=0-19%)
PRE Application ALOMY, percentage damage (five point scale) [3]: 1 (1=0-19%)
POST Application ALOMY, percentage damage (five point scale) [4]: 5 (5=80-100%)
PRE Application ECHCG, percentage damage (five point scale) [5]: 1 (1=0-19%)
POST Application ECHCG, percentage damage (five point scale) [6]: 5 (5=80-100%)
PRE Application AMARE, percentage damage (five point scale) [7]: 5 (5=80-100%)
POST Application SOLNI, percentage damage (five point scale) [8]: 5 (5=80-100%)
POST Application AMARE, percentage damage (five point scale) [9]: 5 (5=80-100%)
POST Application IPOHE, percentage damage (five point scale) [10]: 5 (5=80-100%)
POST Application SETFA, percentage damage (five point scale) [11]: 5 (5=80-100%)
PRE Application SOLNI, percentage damage (five point scale) [12]: 5 (5=80-100%)
